Key:
[1] = target: T1, human recombinant histamine H2 receptor (Homo sapiens, UniProt P25021); experiment: Histamine H2 radioligand binding ([125I]Aminopotentidine); conditions: compound at 1 μM; read-out: Histamine Binding (1 μM) H2, percent inhibition of specific binding
T1 construct: expressed in transfected cells; host or cells: CHO-K1 cells
Summary of the method: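 Membranes from CHO-K1 cells expressing recombinant human H2 receptor, in 50 mM phosphate buffer pH 7.4, incubated with 0.1 nM [125I]aminopotentidine for 120 min at 25 °C; nonspecific binding defined with 3 μM tiotidine.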

[2] = target: T2, human recombinant serotonin (5-Hydroxytryptamine) 5-HT2A receptor (Homo sapiens, UniProt P28223); experiment: Serotonin 5-HT2A radioligand binding ([3H]Ketanserin); conditions: compound at 1 μM; read-out: Serotonin (1 μM) 5-HT2A, percent inhibition of specific binding
T2 construct: expressed in transfected cells; host or cells: CHO-K1 cells
T2 sequence (P28223 whole entry): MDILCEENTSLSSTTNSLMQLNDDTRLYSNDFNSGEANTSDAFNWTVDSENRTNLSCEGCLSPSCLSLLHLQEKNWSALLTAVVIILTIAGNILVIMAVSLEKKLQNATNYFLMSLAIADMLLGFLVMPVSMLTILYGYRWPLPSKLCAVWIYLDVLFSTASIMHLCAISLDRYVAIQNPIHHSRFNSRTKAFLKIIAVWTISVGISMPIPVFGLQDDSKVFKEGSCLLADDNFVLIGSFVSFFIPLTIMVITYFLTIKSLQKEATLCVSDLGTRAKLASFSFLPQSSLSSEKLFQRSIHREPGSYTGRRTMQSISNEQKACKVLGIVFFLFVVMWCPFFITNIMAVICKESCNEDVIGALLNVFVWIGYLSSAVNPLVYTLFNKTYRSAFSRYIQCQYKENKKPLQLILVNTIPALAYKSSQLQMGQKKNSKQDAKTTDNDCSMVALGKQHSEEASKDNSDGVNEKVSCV
Summary of the method: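 Percent inhibition of specific [3H]ketanserin (0.5 nM) binding, filtration read-out, with compounds at ≤1 μM (1% DMSO vehicle). Receptor source: recombinant human 5-HT2A in CHO-K1 cells, 50 mM Tris-HCl pH 7.4, 60 min, 25 °C; 1 μM mianserin gives nonspecific binding.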

[3] = target: T3, human recombinant dopamine D2L receptor (Homo sapiens, UniProt P14416); experiment: Dopamine D2L radioligand binding ([3H]Spiperone); conditions: compound at 1 μM; read-out: Dopamine (1 μM) D2L, percent inhibition of specific binding
T3 construct: expressed in transfected cells; host or cells: CHO cells
T3 sequence (P14416 whole entry): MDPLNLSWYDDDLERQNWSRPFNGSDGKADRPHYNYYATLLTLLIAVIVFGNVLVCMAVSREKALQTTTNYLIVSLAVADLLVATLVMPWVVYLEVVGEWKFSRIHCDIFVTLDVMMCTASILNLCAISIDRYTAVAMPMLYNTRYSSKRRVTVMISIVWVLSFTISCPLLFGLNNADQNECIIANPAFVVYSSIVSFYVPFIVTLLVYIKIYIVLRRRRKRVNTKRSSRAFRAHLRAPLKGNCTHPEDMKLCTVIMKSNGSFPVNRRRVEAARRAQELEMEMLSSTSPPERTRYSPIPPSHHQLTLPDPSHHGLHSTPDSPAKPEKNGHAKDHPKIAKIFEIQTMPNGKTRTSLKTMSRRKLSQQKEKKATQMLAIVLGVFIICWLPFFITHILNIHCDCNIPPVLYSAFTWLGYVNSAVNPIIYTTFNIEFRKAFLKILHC
Summary of the method: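 Binding measured by filtration and counting, reported as % inhibition of specific [3H]spiperone binding (0.16 nM tracer; 10 μM haloperidol for nonspecific). Compounds tested at ≤1 μM in 1% DMSO for 120 min at 25° C against CHO-expressed human D2L in pH 7.4 Tris-HCl buffer.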

[4] = target: T4, human recombinant serotonin (5-Hydroxytryptamine) 5-HT6 receptor (Homo sapiens, UniProt P50406); experiment: Serotonin 5-HT6 radioligand binding ([3H]LSD); conditions: compound at 1 μM; read-out: Serotonin (1 μM) 5-HT6, percent inhibition of specific binding
T4 construct: expressed in transfected cells; host or cells: human HeLa cells
T4 sequence (P50406 whole entry): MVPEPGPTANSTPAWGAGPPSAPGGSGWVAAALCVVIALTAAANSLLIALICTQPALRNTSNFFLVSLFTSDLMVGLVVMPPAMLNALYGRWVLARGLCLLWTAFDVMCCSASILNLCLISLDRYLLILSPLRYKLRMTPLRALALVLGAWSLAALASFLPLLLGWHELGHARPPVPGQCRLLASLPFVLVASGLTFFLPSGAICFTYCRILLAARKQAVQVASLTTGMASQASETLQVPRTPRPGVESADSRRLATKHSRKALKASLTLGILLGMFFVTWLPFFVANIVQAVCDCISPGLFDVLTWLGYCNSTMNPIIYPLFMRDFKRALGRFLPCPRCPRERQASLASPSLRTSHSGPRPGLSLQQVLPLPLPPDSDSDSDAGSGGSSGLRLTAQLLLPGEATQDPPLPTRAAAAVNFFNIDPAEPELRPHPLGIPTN
Summary of the method: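 Human recombinant 5-HT6 receptor from HeLa cells incubated with 1.5 nM [3H]LSD for 120 min at 37° C in 50 mM Tris-HCl pH 7.4, 150 mM NaCl, 2 mM ascorbic acid, 0.001% BSA. Nonspecific binding defined with 5 μM serotonin; bound ligand counted after filtration.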

[5] = target: T5, human recombinant serotonin (5-Hydroxytryptamine) 5-HT2C receptor (Homo sapiens, UniProt P28335); experiment: Serotonin 5-HT2C radioligand binding ([3H]Mesulergine); conditions: compound at 1 μM; read-out: Serotonin (1 μM) 5-HT2C, percent inhibition of specific binding
T5 construct: expressed in transfected cells; host or cells: CHO-K1 cells
T5 sequence (P28335 33-458): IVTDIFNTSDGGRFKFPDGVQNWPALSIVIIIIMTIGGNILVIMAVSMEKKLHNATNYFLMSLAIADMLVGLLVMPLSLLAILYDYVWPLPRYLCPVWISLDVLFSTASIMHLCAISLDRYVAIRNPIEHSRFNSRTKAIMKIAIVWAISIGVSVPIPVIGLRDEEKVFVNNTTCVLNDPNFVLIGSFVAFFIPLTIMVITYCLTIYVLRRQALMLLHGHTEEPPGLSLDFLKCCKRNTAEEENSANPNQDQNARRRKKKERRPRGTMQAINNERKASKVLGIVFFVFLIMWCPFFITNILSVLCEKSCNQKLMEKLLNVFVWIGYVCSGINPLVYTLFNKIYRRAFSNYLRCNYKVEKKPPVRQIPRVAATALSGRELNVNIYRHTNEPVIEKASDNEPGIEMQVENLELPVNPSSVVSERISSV
Summary of the method: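 Membranes from CHO-K1 cells expressing human 5-HT2C, incubated with 1 nM [3H]mesulergine for 60 min at 25 °C in 50 mM Tris-HCl pH 7.4 with ascorbic acid and pargyline.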

T1 sequence (P25021 whole entry): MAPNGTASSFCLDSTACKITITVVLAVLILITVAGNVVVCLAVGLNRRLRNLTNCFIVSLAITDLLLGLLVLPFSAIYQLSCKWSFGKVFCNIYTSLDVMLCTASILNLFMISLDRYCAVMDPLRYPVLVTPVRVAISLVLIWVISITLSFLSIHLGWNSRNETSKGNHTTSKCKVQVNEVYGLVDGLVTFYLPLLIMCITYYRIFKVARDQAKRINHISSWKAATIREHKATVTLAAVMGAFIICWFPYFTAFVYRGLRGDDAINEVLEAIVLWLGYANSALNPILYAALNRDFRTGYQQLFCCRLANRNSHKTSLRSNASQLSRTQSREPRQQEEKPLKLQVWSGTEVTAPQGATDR

With `Cc1ccc2c(c1)c1c(n2CC(=O)N2CCNCC2)CCN(C)CC1` [Compound No. 224, 2-(3,9-dimethyl-2,3,4,5-tetrahydroazepino[4,5-b]indol-6(1H)-yl)-1-(piperazin-1-yl)ethanone] the inhibition at 1 µM [1] was -4%, the inhibition at 1 µM [2] was -7% and the inhibition at 1 µM [3] was -2%. It also gave an inhibition at 1 µM [4] of -4% and an inhibition at 1 µM [5] of 11%.

`CN1CCc2c(n(/C=C/c3ccccc3F)c3ccc(Cl)cc23)CC1` [Compound No. 83, (E)-9-chloro-6-(2-fluorostyryl)-3-methyl-1,2,3,4,5,6-hexahydro azepino[4,5-b]indole] gave an inhibition at 1 µM [1] of 98%, an inhibition at 1 µM [2] of 99% and an inhibition at 1 µM [3] of 61%. For the same compound, the inhibition at 1 µM [4] was 103% and the inhibition at 1 µM [5] was 100%.

Work on `COc1ccc(/C=C/n2c3c(c4cc(Cl)ccc42)CCN(C)CC3)cc1OC` [Compound No. 226, (E)-9-chloro-6-(3,4-dimethoxystyryl)-3-methyl-1,2,3,4,5,6-hexahydroazepino[4,5-b]indole] yielded an inhibition at 1 µM [1] of 39%, an inhibition at 1 µM [2] of 92% and an inhibition at 1 µM [3] of 37%. It also gave an inhibition at 1 µM [4] of 36% and an inhibition at 1 µM [5] of 82%.

Work on `COc1ccc(/C=C/n2c3c(c4cc(Cl)ccc42)CCN(C)CC3)cc1` [Compound No. 78, 6-(4-methoxystyryl)-9-chloro-1,2,3,4,5,6-hexahydro-3-methylazepino[4,5-b]indole] yielded an inhibition at 1 µM [1] of 91%, an inhibition at 1 µM [2] of 100% and an inhibition at 1 µM [3] of 58%. The inhibition at 1 µM [4] was 91% and the inhibition at 1 µM [5] was 98%.

In the case of `C/C(=C/n1c2c(c3cc(C)ccc31)CCN(C)CC2)c1ccc(Cl)cc1Cl` [Compound No. 174, (Z)-6-(2-(2,4-dichlorophenyl)prop-1-enyl)-1,2,3,4,5,6-hexahydro-3,9-dimethylazepino[4,5-b]indole], the inhibition at 1 µM [1] is reported as 99%, the inhibition at 1 µM [2] is reported as 102% and the inhibition at 1 µM [3] is reported as 34%. The inhibition at 1 µM [4] was 100% and the inhibition at 1 µM [5] was 101%.

`CN1CCc2c(n(/C=C/c3ccccc3)c3ccc(Cl)cc23)CC1` [Compound No. 228, (E)-9-chloro-3-methyl-6-styryl-1,2,3,4,5,6-hexahydroazepino[4,5-b]indole] showed an inhibition at 1 µM [1] of 97%, an inhibition at 1 µM [2] of 99% and an inhibition at 1 µM [3] of 73%. For the same compound, the inhibition at 1 µM [4] was 104% and the inhibition at 1 µM [5] was 97%.

In the case of `Cc1ccc2c(c1)c1c(n2CC(=O)Nc2ccccc2)CCN(C)CC1` [Compound No. 79, 2-(2,3,4,5-tetrahydro-3,9-dimethylazepino[4,5-b]indol-6(1H)-yl)-N-phenylacetamide], the inhibition at 1 µM [1] is reported as 0%, the inhibition at 1 µM [2] is reported as -8% and the inhibition at 1 µM [3] is reported as -7%. It also gave an inhibition at 1 µM [4] of -7% and an inhibition at 1 µM [5] of -18%.

`COc1ccc(/C=C/n2c3c(c4cc(C)ccc42)CCN(C)CC3)cc1F` [Compound No. 180, (E)-6-(3-fluoro-4-methoxystyryl)-1,2,3,4,5,6-hexahydro-3,9-dimethylazepino[4,5-b]indole] showed an inhibition at 1 µM [1] of 77%, an inhibition at 1 µM [2] of 101% and an inhibition at 1 µM [3] of 62%. It also gave an inhibition at 1 µM [4] of 95% and an inhibition at 1 µM [5] of 100%.

For `CN1CCc2c(n(CCc3ccc(C(F)(F)F)nc3)c3ccc(Cl)cc23)CC1` [Compound No. 1, 9-chloro-6-(2-(6-(trifluoromethyl)pyridin-3-yl)ethyl)-1,2,3,4,5,6-hexahydro-3-methylazepino[4,5-b]indole], the inhibition at 1 µM [1] was 58%, the inhibition at 1 µM [2] was 98% and the inhibition at 1 µM [3] was 23%. For the same compound, the inhibition at 1 µM [4] was 86% and the inhibition at 1 µM [5] was 79%.

In the case of `COc1ccc(C(O)Cn2c3c(c4cc(Cl)ccc42)CCN(C)CC3)cc1OC` (stereo not drawn) [Compound No. 77, 2-(9-chloro-2,3,4,5-tetrahydro-3-methylazepino[4,5-b]indol-6(1H)-yl)-1-(3,4-dimethoxyphenyl)ethanol], the inhibition at 1 µM [1] is reported as 37%, the inhibition at 1 µM [2] is reported as 90% and the inhibition at 1 µM [3] is reported as 16%. For the same compound, the inhibition at 1 µM [4] was 33% and the inhibition at 1 µM [5] was 72%.

For `CC1CCN(C(=O)Cn2c3c(c4cc(Cl)ccc42)CCN(C)CC3)CC1` [Compound No. 76, 2-(9-chloro-2,3,4,5-tetrahydro-3-methylazepino[4,5-b]indol-6(1H)-yl)-1-(4-methylpiperidin-1-yl)ethanone], the inhibition at 1 µM [1] was 19%, the inhibition at 1 µM [2] was 52% and the inhibition at 1 µM [3] was 0%. It also gave an inhibition at 1 µM [4] of 39% and an inhibition at 1 µM [5] of 78%.

`C/C(=C/n1c2c(c3cc(Cl)ccc31)CCN(C)CC2)c1ccc(Cl)cc1Cl` [Compound No. 152, (Z)-9-chloro-6-(2-(2,4-dichlorophenyl)prop-1-enyl)-1,2,3,4,5,6-hexahydro-3-methylazepino[4,5-b]indole] was tested, and the inhibition at 1 µM [1] was 86%, the inhibition at 1 µM [2] was 100% and the inhibition at 1 µM [3] was 3%. The inhibition at 1 µM [4] was 73% and the inhibition at 1 µM [5] was 94%.

`Cc1cncc(CCn2c3c(c4cc(Cl)ccc42)CCN(C)CC3)c1` [Compound No. 3, 9-chloro-3-methyl-6-(2-(5-methylpyridin-3-yl)ethyl)-1,2,3,4,5,6-hexahydroazepino[4,5-b]indole] was tested, and the inhibition at 1 µM [1] was 82%, the inhibition at 1 µM [2] was 95% and the inhibition at 1 µM [3] was 27%. It also gave an inhibition at 1 µM [4] of 92% and an inhibition at 1 µM [5] of 94%.

Compound `C=C(Cn1c2c(c3cc(Cl)ccc31)CCN(C)CC2)c1ccc(F)cc1` [Compound No. 82, 9-chloro-6-(2-(4-fluorophenyl)allyl)-3-methyl-1,2,3,4,5,6-hexahydroazepino[4,5-b]indole] has an inhibition at 1 µM [1] of 95%, an inhibition at 1 µM [2] of 98% and an inhibition at 1 µM [3] of 90%. It also gave an inhibition at 1 µM [4] of 104% and an inhibition at 1 µM [5] of 98%.

`Cc1ccc2c(c1)c1c(n2CC(=O)N2CCC(C)CC2)CCN(C)CC1` [Compound No. 225, 2-(3,9-dimethyl-2,3,4,5-tetrahydroazepino[4,5-b]indol-6(1H)-yl)-1-(4-methylpiperidin-1-yl)ethanone] showed an inhibition at 1 µM [1] of 6%, an inhibition at 1 µM [2] of 38% and an inhibition at 1 µM [3] of 3%. The inhibition at 1 µM [4] was 16% and the inhibition at 1 µM [5] was 44%.

For `COc1ccc(C(O)Cn2c3c(c4cc(C)ccc42)CCN(C)CC3)cc1OC` (stereo not drawn) [Compound No. 227, 1-(3,4-dimethoxyphenyl)-2-(3,9-dimethyl-2,3,4,5-tetrahydroazepino[4,5-b]indol-6(1H)-yl)ethanol], the inhibition at 1 µM [1] was 19%, the inhibition at 1 µM [2] was 85% and the inhibition at 1 µM [3] was 5%. The inhibition at 1 µM [4] was 30% and the inhibition at 1 µM [5] was 66%.

In the case of `COc1ccc(/C=C/n2c3c(c4cc(Cl)ccc42)CCN(C)CC3)cc1F` [Compound No. 158, (E)-6-(3-fluoro-4-methoxystyryl)-9-chloro-1,2,3,4,5,6-hexahydro-3-methylazepino[4,5-b]indole], the inhibition at 1 µM [1] is reported as 89%, the inhibition at 1 µM [2] is reported as 101% and the inhibition at 1 µM [3] is reported as 65%. For the same compound, the inhibition at 1 µM [4] was 93% and the inhibition at 1 µM [5] was 99%.

In the case of `C/C(=C\n1c2c(c3cc(Cl)ccc31)CCN(C)CC2)c1ccc(F)cc1` [Compound No. 2, 9-chloro-6-((E)-2-(4-fluorophenyl)prop-1-enyl)-1,2,3,4,5,6-hexahydro-3-methylazepino[4,5-b]indole], the inhibition at 1 µM [1] is reported as 105%, the inhibition at 1 µM [2] is reported as 99% and the inhibition at 1 µM [3] is reported as 97%. The inhibition at 1 µM [4] was 103% and the inhibition at 1 µM [5] was 88%.
